Data as given in paper PMC9501129 (Pharmaceutics, 2022).
Like-named read-outs stand apart in the source and are kept apart here.

Assays:
[1] = cited from earlier work
[2] = ex-vivo dually perfused human cotyledon; cited from earlier work
[3] = Maternal plasma drug concentration in mouse pregnancy model (HPLC-MSMS); assay type: in vivo, C57BL/6J mice; conditions: pregnant mice, mean (SD), n=2; for concentration at 24 h / Cmax at 1 h: female, C57BL/6J, mouse, plasma; for concentration at 24 h: oral, read-out: Plasma Concentration 24 h (Cmin)
Description: All animal experiments were approved by the University Health Network Animal Use Committee (protocol #2575) and performed according to the policies and guidelines of the Canadian Council on Animal Care. C57BL/6J mice bred in-house (original breeders from Jackson Laboratory RRID:IMSR JAX:000664) were maintained under a 12-h light/dark cycle, with ad libitum access to food and water. Animals were acclimated to their surroundings for 1 week prior to experiment initiation. Males were isolated for 7 days prior to mating. Female mice (7–12 weeks of age) were mated with males at a ratio of 2:1. Presence of vaginal plug was denoted as gestational day 0.5 (GD0.5). Pregnancy was confirmed by weight gain of >1.5 g on GD9.5 and >3 g on GD13.5. […] The equivalent mouse mg/kg dose was calculated based on the human dose divided by an assumed average human weight of 60 kg. The dose of TDF/FTC was kept constant across the different dosages of BIC and CAB. On GD15.5, mice underwent saphenous bleed 24 h after the GD14.5 dose administration (trough). Immediately after the saphenous bleed, mice were dosed with the appropriate drug regimen and sacrificed 1 h post-treatment (peak), at which time blood was collected by cardiac puncture and amniotic fluid was collected by dissecting the uterus, puncturing the amniotic sac, and draining the amniotic fluid into a sterile dish. Amniotic fluid was pooled for the entire litter. Samples from 2 dams per arm were analyzed for drug levels.
BIC and CAB levels in plasma and amniotic fluid were determined using a validated, simultaneous assay using high-performance liquid chromatography coupled with tandem mass spectrometry (HPLC-MSMS). Briefly, 50 μL of plasma or amniotic fluid was spiked with internal standard (ritonavir-d6) followed by protein precipitation with acetonitrile and filtration. Filtrates were diluted 1:9 with ammonium acetate buffer (10 mM) and analyzed by the HPLC-MSMS system, consisting of a Shimadzu Nexera XR high-performance liquid chromatograph (Shimadzu, Columbia, MD, USA) coupled with a SCIEX API 4500 QqQ mass spectrometer (SCIEX, Concord, ON, Canada). Chromatographic separation by Mobile Phase A (10% methanol, 5% 50 mM ammonium acetate, 85% 0.25% acetic acid pH 3.6 ± 0.2) and Mobile Phase B (90% methanol, 5% 50 mM ammonium acetate, 5% 0.25% acetic acid pH 6.6 ± 0.2) was performed under linear gradient conditions (flow rate 0.7 mL/min) on a reverse-phase Zorbax XDB-C18 column (Agilent Technologies, Santa Clara, CA, USA) maintained at 40 °C. […] HPLC-MSMS data were acquired using Analyst (v 1.6.3, SCIEX, Concord, ON, Canada) and analyzed with MultiQuant software (v 3.0.3, SCIEX, Concord, ON, Canada). […] No peaks were detected in blank mouse plasma at the retention time with the specific ion settings for each compound. […] Positive controls spiked in-house and prepared by an external laboratory during a sample exchange program were included in all runs.

[4] = ART-naïve, Switch study, ART-experienced, virologically suppressed, CAB/rilpivirin LA every 4 weeks, initial injection 600 mg IM
[5] = ART-naïve, Switch study, ART-experienced, virologically suppressed, CAB/rilpivirin LA every 4 weeks, oral 30 mg once daily
[6] = Healthy Participants (Females), 30 mg oral phase, 600 mg LA CAB every 12 weeks, 1st injection
[7] = Healthy Participants (Females), 30 mg oral phase, 600 mg LA CAB every 12 weeks, 2nd injection
[8] = Healthy Participants (Females), 30 mg oral phase, 600 mg LA CAB every 12 weeks, 3rd injection
[9] = Healthy Participants (Females), 30 mg oral phase, 600 mg LA CAB every 12 weeks, 4th injection
[10] = Healthy Participants (Females), 30 mg oral phase, 600 mg LA CAB every 12 weeks, 5th injection
[11] = Healthy Participants (Females), 30 mg oral phase, 800 mg LA CAB every 12 weeks, 1st injection
[12] = Healthy Participants (Females), 30 mg oral phase, 800 mg LA CAB every 12 weeks, 2nd injection
[13] = Healthy Participants (Females), 30 mg oral phase, 800 mg LA CAB every 12 weeks, 3rd injection
[14] = Healthy Participants (Males), 30 mg oral phase, 600 mg LA CAB every 12 weeks, 1st injection
[15] = Healthy Participants (Males), 30 mg oral phase, 600 mg LA CAB every 12 weeks, 2nd injection
[16] = Healthy Participants (Males), 30 mg oral phase, 600 mg LA CAB every 12 weeks, 3rd injection
[17] = Healthy Participants (Males), 30 mg oral phase, 600 mg LA CAB every 12 weeks, 4th injection
[18] = Healthy Participants (Males), 30 mg oral phase, 600 mg LA CAB every 12 weeks, 5th injection
[19] = Healthy Participants (Males), 30 mg oral phase, 800 mg LA CAB every 12 weeks, 1st injection, ref 28
[20] = Healthy Participants (Males), 30 mg oral phase, 800 mg LA CAB every 12 weeks, 1st injection, ref 29
[21] = Healthy Participants (Males), 30 mg oral phase, 800 mg LA CAB every 12 weeks, 2nd injection, ref 28
[22] = Healthy Participants (Males), 30 mg oral phase, 800 mg LA CAB every 12 weeks, 2nd injection, ref 29
[23] = Healthy Participants (Males), 30 mg oral phase, 800 mg LA CAB every 12 weeks, 3rd injection, ref 28
[24] = Healthy Participants (Males), 30 mg oral phase, 800 mg LA CAB every 12 weeks, 3rd injection, ref 29
[25] = Healthy Participants, oral lead-in followed by LA CAB IM or SC injection: 30 mg, with Rilpivirine LA IM monthly
[26] = Healthy Participants, oral lead-in followed by LA CAB injection: 200 mg IM, with Rilpivirine LA IM monthly
[27] = Healthy Participants, oral lead-in followed by LA CAB injection: 200 mg SC, with Rilpivirine LA IM monthly
[28] = Healthy Participants, oral lead-in followed by LA CAB injection: 400 mg IM, with Rilpivirine LA IM monthly
[29] = Healthy Participants, oral lead-in followed by LA CAB injection: 800 mg IM, with Rilpivirine LA IM monthly
[30] = Healthy Participants, repeat oral dose 5 mg
[31] = Healthy Participants, repeat oral dose 10 mg
[32] = Healthy Participants, repeat oral dose 25 mg
[33] = Healthy Participants, single oral dose 5 mg
[34] = Healthy Participants, single oral dose 10 mg
[35] = Healthy Participants, single oral dose 25 mg
[36] = Healthy Participants, single oral dose 50 mg
[37] = Participants with HIV, repeat oral dose 30 mg
[38] = Participants with HIV, single oral dose 5 mg
[39] = CAB 0.5 mg/kg (1×) oral gavage once daily GD11.5-GD15.5 with TDF 50 mg/kg + FTC 33.3 mg/kg
[40] = CAB 1.5 mg/kg (3×) oral gavage once daily GD11.5-GD15.5 with TDF 50 mg/kg + FTC 33.3 mg/kg
[41] = CAB 5 mg/kg (10×) oral gavage once daily GD11.5-GD15.5 with TDF 50 mg/kg + FTC 33.3 mg/kg

C[C@H]1CO[C@@H]2Cn3cc(C(=O)NCc4ccc(F)cc4F)c(=O)c(O)c3C(=O)N12 [CAB, cabotegravir]
Human Plasma Levels Cmax [1, 4]: 8000 ng/mL | Human Plasma Levels Cmin [1, 4]: 1500 ng/mL | Human Plasma Levels Cmin ([1]; ART-naïve, Switch study, ART-experienced, virologically suppressed, CAB/rilpivirin LA every 4 weeks, monthly injection 400 mg IM): 2800 ng/mL | Human Plasma Levels Cmax [1, 5]: 8000 ng/mL | Human Plasma Levels Cmin [1, 5]: 4600 ng/mL | Human Plasma Levels Cmax [1, 6]: 1580 ng/mL | Human Plasma Levels Cmin [1, 6]: 1330 ng/mL | Human Plasma Levels Cmax [1, 7]: 2960 ng/mL | Human Plasma Levels Cmin [1, 7]: 1820 ng/mL | Human Plasma Levels Cmax [1, 8]: 3460 ng/mL | Human Plasma Levels Cmin [1, 8]: 2040 ng/mL | Human Plasma Levels Cmax [1, 9]: 3330 ng/mL | Human Plasma Levels Cmin [1, 9]: 2060 ng/mL | Human Plasma Levels Cmax [1, 10]: 3660 ng/mL | Human Plasma Levels Cmin [1, 10]: 2030 ng/mL | Human Plasma Levels Cmax [1, 11]: 1890 ng/mL | Human Plasma Levels Cmin [1, 11]: 950 ng/mL | Human Plasma Levels Cmax [1, 12]: 2290 ng/mL | Human Plasma Levels Cmin [1, 12]: 1350 ng/mL | Human Plasma Levels Cmax [1, 13]: 3010 ng/mL | Human Plasma Levels Cmin [1, 13]: 1650 ng/mL | Human Plasma Levels Cmax [1, 14]: 2510 ng/mL | Human Plasma Levels Cmin [1, 14]: 1790 ng/mL | Human Plasma Levels Cmax [1, 15]: 3900 ng/mL | Human Plasma Levels Cmin [1, 15]: 1290 ng/mL | Human Plasma Levels Cmax [1, 16]: 2960 ng/mL | Human Plasma Levels Cmin [1, 16]: 1110 ng/mL | Human Plasma Levels Cmax [1, 17]: 2960 ng/mL | Human Plasma Levels Cmin [1, 17]: 1460 ng/mL | Human Plasma Levels Cmax [1, 18]: 3820 ng/mL | Human Plasma Levels Cmin [1, 18]: 1680 ng/mL | Human Plasma Levels Cmax [1, 19]: 4260 ng/mL | Human Plasma Levels Cmin [1, 19]: 302 ng/mL | Human Plasma Levels Cmax [1, 20]: 2670 ng/mL | Human Plasma Levels Cmin [1, 20]: 490 ng/mL | Human Plasma Levels Cmax [1, 21]: 5220 ng/mL | Human Plasma Levels Cmin [1, 21]: 331 ng/mL | Human Plasma Levels Cmax [1, 22]: 2570 ng/mL | Human Plasma Levels Cmin [1, 22]: 780 ng/mL | Human Plasma Levels Cmax [1, 23]: 4910 ng/mL | Human Plasma Levels Cmin [1, 23]: 387 ng/mL | Human Plasma Levels Cmax [1, 24]: 3390 ng/mL | Human Plasma Levels Cmin [1, 24]: 820 ng/mL | Human Plasma Levels Cmax ([1]; Healthy Participants, IM (gluteal) injection 100 mg IM): 200 ng/mL | Human Plasma Levels Cmax ([1]; Healthy Participants, IM (gluteal) injection 200 mg IM): 300 ng/mL | Human Plasma Levels Cmax ([1]; Healthy Participants, IM (gluteal) injection 400 mg (200 mg × 2)): 1400 ng/mL | Human Plasma Levels Cmax ([1]; Healthy Participants, IM (gluteal) injection 400 mg IM): 700 ng/mL | Human Plasma Levels Cmax ([1]; Healthy Participants, IM (gluteal) injection 800 mg IM (400 mg × 2)): 3300 ng/mL | Human Plasma Levels Cmax ([1]; Healthy Participants, SC (abdominal) injection 100 mg): 200 ng/mL | Human Plasma Levels Cmax ([1]; Healthy Participants, SC (abdominal) injection 200 mg): 500 ng/mL | Human Plasma Levels Cmax ([1]; Healthy Participants, SC (abdominal) injection 400 mg (200 mg × 2)): 900 ng/mL | Human Plasma Levels Cmax [1, 25]: 8300 ng/mL | Human Plasma Levels Cmin [1, 25]: 4900 ng/mL | Human Plasma Levels Cmax [1, 26]: 2200 ng/mL | Human Plasma Levels Cmin [1, 26]: 1610 ng/mL | Human Plasma Levels Cmax [1, 27]: 2100 ng/mL | Human Plasma Levels Cmin [1, 27]: 1660 ng/mL | Human Plasma Levels Cmax [1, 28]: 4400 ng/mL | Human Plasma Levels Cmin [1, 28]: 3270 ng/mL | Human Plasma Levels Cmax [1, 29]: 3300 ng/mL | Human Plasma Levels Cmin [1, 29]: 1100 ng/mL | Human Plasma Levels Cmax [1, 30]: 2080 ng/mL | Human Plasma Levels Cmin [1, 30]: 1060 ng/mL | Human Plasma Levels Cmax [1, 31]: 4290 ng/mL | Human Plasma Levels Cmin [1, 31]: 2390 ng/mL | Human Plasma Levels Cmax [1, 32]: 9470 ng/mL | Human Plasma Levels Cmin [1, 32]: 5400 ng/mL | Human Plasma Levels Cmax [1, 33]: 1150 ng/mL | Human Plasma Levels Cmin [1, 33]: 420 ng/mL | Human Plasma Levels Cmax [1, 34]: 2150 ng/mL | Human Plasma Levels Cmin [1, 34]: 830 ng/mL | Human Plasma Levels Cmax [1, 35]: 4380 ng/mL | Human Plasma Levels Cmin [1, 35]: 1930 ng/mL | Human Plasma Levels Cmax [1, 36]: 8570 ng/mL | Human Plasma Levels Cmin [1, 36]: 3820 ng/mL | Human Plasma Levels Cmin ([1]; Participants with HIV, CAB/rilpivirine LA injectable, repeat-dose every 4 week 400 mg): 2740 ng/mL | Human Plasma Levels Cmin ([1]; Participants with HIV, CAB/rilpivirine LA injectable, repeat-dose every 8 week 600 mg): 1670 ng/mL | Human Plasma Levels Cmax ([1]; Participants with HIV, repeat oral dose 5 mg): 1020 ng/mL | Human Plasma Levels Cmax [1, 37]: 6370 ng/mL | Human Plasma Levels Cmin [1, 37]: 3280 ng/mL | Human Plasma Levels Cmax [1, 38]: 520 ng/mL | Human Plasma Levels Cmin [1, 38]: 230 ng/mL | Human Plasma Levels Cmin ([1]; Participants with HIV, single oral dose 30 mg (Ctau)): 1250 ng/mL | Human Plasma Levels Cmax ([1]; Participants with HIV, single oral dose 30 mg): 2840 ng/mL | Concentration in the fetal compartment [2]: 48 ng/mL | Concentration in the maternal compartment [2]: 550 ng/mL | Maternal-to-fetal ratio [2]: 10% | Placental transfer [2]: low placental transfer | concentration at 24 h [3, 39]: 260 ng/mL | concentration at 24 h [3, 40]: 480 ng/mL | concentration at 24 h [3, 41]: ~1300 ng/mL | Cmax at 1 h [3, 39]: 913 ng/mL | Cmax at 1 h [3, 40]: 1270 ng/mL | Cmax at 1 h [3, 41]: 3580 ng/mL | Plasma Concentration 24 h (Cmin) [3, 41]: 1306 (402) ng/mL
